For assay [1], the system named is wild-type Saccharomyces cerevisiae CEN.PK113-7D yeast strain. Description: Chronological lifespan analysis in yeast (PI, outgrowth, spotting). Format: cell-based. The procedure: (§1) Yeast strain was recovered from frozen glycerol stock at 30° C. on YPD agar medium. Yeast was left to propagate in SD medium overnight at 30° C. with shaking at 220 revolutions per minute (rpm). Cells propagated overnight were diluted to a starting optical density at 600 nm (OD600) of approximately 0.2 in fresh SD medium to begin the chronological lifespan (CLS) experiments.
CLS experiments were performed in 96-well plates with 200 μL yeast culture. Cellular inoculums were transferred into 96-well plates containing serially double-diluted concentrations (0 to 10 nM) of rapamycin. […] Cells were incubated at 30° C., and the growth was measured at different time points. The growth time point 72 hours was considered as Day 1 for the CLS assay. Cell survival was quantified at various age time points by three different approaches: (i) PI fluorescence-based method, (ii) outgrowth in YPD liquid medium, and (iii) spotting assay (FIG. 1).
Yeast cells (40 μL) from different age time points were transferred into a second 96-well plate (different to the 96-well plate in which the CLS analysis as outlined above was performed). Cells were washed and incubated in 100 μL 1×phosphate buffered saline (PBS) with propidium iodide (PI) (5 μg/mL) for 15 minutes in the dark. Positive and negative control samples were included for quantitative analysis. Positive control (cells boiled at 100° C. for 15 minutes) was PI-stained and processed in the same 96-well plate. Samples without PI-stained cells served as the negative control. After incubation, cells were washed and resuspended in 100 μL PBS. The fluorescence reading of the samples (excitation and emission wavelengths at 535 nm and 617 nm, respectively) and OD600 were measured with a microplate reader (BioTek, Winooski, Vermont, United States). The fluorescence intensity of each sample was normalized with OD600. The background fluorescence signal of the unstained negative sample was subtracted from the normalized fluorescence intensity of each sample. The obtained fluorescence intensity of the positive control (boiled dead cells) was considered 0% cell survival. Cell death was validated by allowing the boiled dead cells to grow in medium. Cell survival at different age time points of samples were calculated by normalizing the fluorescence intensity with positive control sample (boiled cells).
Yeast stationary culture (3 μL) of different age time points were transferred to a second 96-well plate, containing 200 μL YPD medium, and incubated for 24 hours at 30° C. Outgrowth (OD600) of aged cells was measured by the microplate reader. Quantification of cell survival for each age point was determined as relative to Day 1 (considered 100% cell survival). This quantification was performed by using the formula,
Yeast stationary culture (3 μL) of different age time points were spotted onto a YPD agar plate and incubated for 48 hours at 30° C. The outgrowth of aged cells on the YPD agar plate was photographed using the Bio-Rad GelDoc Imaging System (Bio-Rad, Hercules, California, United States).

For assay [2] the test system is unchanged. The experiment in a line: Yeast cell growth (OD600) in SD medium. The assay is classed as cell-based. The conditions noted are these: 0 to 8 mM; 24, 48 and 72 hours. As to the method:
as §1
CLS experiments were performed in 96-well plates with 200 μL yeast culture. Cellular inoculums were transferred into 96-well plates containing serially double-diluted concentrations (0 to 10 nM) of rapamycin. Cellular inoculum was transferred into 96-well plates containing serially double-diluted concentrations (0 to 8 mM) of 2,5-anhydro-D-mannitol, D-fructose, D-mannitol, D-maltose, and D-sorbitol in SD medium. Cells were incubated at 30° C., and the growth was measured at different time points. The growth time point 72 hours was considered as Day 1 for the CLS assay. Cell survival was quantified at various age time points by three different approaches: (i) PI fluorescence-based method, (ii) outgrowth in YPD liquid medium, and (iii) spotting assay (FIG. 1).
Firstly, the effect of 2,5-AM on cell growth was determined. Yeast cells were incubated with varying concentrations of 2,5-AM in the SD medium. Cell growth was measured at different time points (24 hours, 48 hours, and 72 hours). […] Then, the survival of chronologically aged cells supplemented with different concentrations of 2,5-AM was measured using the PI fluorescence method. At each chronological age point, a 3 μL culture was transferred to a second 96-well plate containing 200 μL YPD medium. The 72-hour growth culture was considered Day 1 for the CLS analysis. The viability fraction was calculated, and a survival graph was plotted for different chronological age time points (FIG. 5). […] The survival of aged cells supplemented with 2,5-AM (4 mM and 8 mM) on Day 4 was approximately 80%. However, the survival of aged cells without 2,5-AM was approximately 50%. On Day 7, survival of 2,5-AM supplemented aged cells was approximately 75%. However, the survival of aged cells without 2,5-AM was reduced to less than 20%.
Firstly, the effect of fructose, mannitol, maltose, and sorbitol on cell growth was tested. Yeast cells were incubated with various concentrations of fructose, mannitol, maltose, and sorbitol similar to 2,5-AM in the SD medium. […] Next, the survival of chronologically aged cells on day 1, day 7, day 14, and day 21 was measured. […] Aged cells supplemented with 2,5-AM (8 mM) survived (approximately 65%) on Day 21. However, the survival of aged cells without 2,5-AM supplementation was less than 10%.

The test system of a further assay is human cells. Description: High-throughput chemical screening using the PI method in human cells. Format: cell-based. Particulars: Day 6; library tested at 1 μM; controls ranged from 4.22 to 4.53; lower = extended CLS. As to the method: The stock solution of rapamycin, hemin, 5-fluorouracil, atorvastatin, and methotrexate was prepared in DMSO, followed by serial dilution to form various concentrations used in the experiment. The final DMSO concentration was kept at 0.05% in all experiments. The stock solution of 2,5-anhydro-D-mannitol was prepared in D10 medium. The chemical library used in screening were tested at 1 μM concentrations. Controls used were the same as the solvent applied, DMSO or water.
The assay was performed by preparing the cells with PI (2 μg/mL or 5 μg/mL) in a D10 medium. 200 μL culture (8×10^4 cells) was seeded per well in a 96-well plate with different concentrations of the anti-aging drug (rapamycin, 2,5-AM, plicamycin, copanlisib dihydrochloride, nedaplatin, hemin, 5-fluorouracil, methotrexate, or atorvastatin) and no treatment control (DMSO). The culture plate was kept away from light throughout the experiment and incubated at 37° C. with 5% CO2. At different age time points, reading was taken with a Synergy MX microplate reader (BioTek, Winooski, Vermont, United States) at 535 nm excitation and 617 nm emission.
The PI method was used to identify additional novel anti-aging compounds that prolong CLS. A total of 162 compounds were screened, including some FDA-approved drugs and natural products. The log10 values of the PI intensity for the various control samples ranged from 4.22 to 4.53.

Assay [3] concerns wild-type Saccharomyces cerevisiae CEN.PK113-7D yeast strain. Particulars: very high concentrations (18% equivalent to 1M); by increasing osmolarity; cited from earlier work.
[4] abbreviates: 0 to 8 mM in SD medium, up to day 21.

Entries after “also recorded” stand apart in the source; their conditions may differ.

With `O=C(CO)[C@@H](O)[C@H](O)[C@H](O)CO` [fructose, D-fructose], the “effect on yeast CLS” value in assay [1] (setting [4]) was “did not extend the lifespan of the yeast”. The cell growth entry in assay [2] is “reached growth saturation after 24 hours”.
As for copanlisib dihydrochloride, the “log10 PI intensity” value with human cells turned out to be 3.59.
Still for that read-out and setting: the figure for plicamycin is 3.91.
Consider `OC[C@@H](O)[C@@H](O)[C@H](O)[C@H](O)CO` [mannitol, D-mannitol], for which the “effect on yeast CLS” value in assay [1] (setting [4]) was “did not extend the lifespan of the yeast”. Besides, in assay [2], the cell growth entry is on record as “reached growth saturation after 24 hours”.
As for `OC[C@@H](O)[C@@H](O)[C@H](O)[C@@H](O)CO` [sorbitol, D-sorbitol], the “effect on yeast CLS (known)” value in assay [3] is on record as “increase the CLS of yeast cells”. For the same compound, the “effect on yeast CLS” value is given as “did not extend the lifespan of the yeast; also recorded: unable to increase the CLS” in assay [1] (setting [4]); “increased the CLS of yeast” in assay [1] (very high concentrations, between 0.5 and 1 M). Further, the cell growth entry in assay [2] was “reached growth saturation after 24 hours”.
Turning to `OC[C@H]1O[C@H](O[C@H]2[C@H](O)[C@@H](O)[C@H](O)O[C@@H]2CO)[C@H](O)[C@@H](O)[C@@H]1O` [maltose, D-maltose], the “effect on yeast CLS” value in assay [1] (setting [4]) was “did not extend the lifespan of the yeast”. For the same compound, the cell growth result in assay [2] is “reached growth saturation after 24 hours”.

Source of the values: patent US20250161338A1, “Compounds for Anti-aging Intervention” (AGENCY FOR SCIENCE, TECHNOLOGY AND RESEARCH, priority 2022, published 2025).
